# According to US20250171463A1 (BIOGEN MA INC., priority 2022, published 2025):
# Biological target: T1, EBP (Homo sapiens, UniProt Q15125)
# T1 construct: HEK293T cells were utilized as the source of EBP enzyme; endogenous in cells; host or cells: HEK293T
# Assay: EBP Functional Assay (EBP immunoaffinity LC-MS assay)
# Format: biochemical
# Conditions: EBP enzyme from HEK293T cells; 30 min with inhibitor, then zymosterol-d5, 37° C., 4 h; percent conversion to dehydrolathosterol-d5 by LC-APCI MRM MS
# Experimental: The EBP immunoaffinity (IA) LC-MS assay measures the potency of small molecule inhibitors of EBP by quantifying their concentration-dependent changes in the enzyme's substrate and product using liquid chromatography atmospheric pressure chemical ionization multiple reaction monitoring mass spectrometry (LC-APCI MRM MS). HEK293T cells were utilized as the source of EBP enzyme. The enzyme was incubated with the small molecule inhibitors at variable concentrations for 30 min. Deuterated form of EBP substrate, zymosterol-d5 (Avanti Polar Lipids, Cat #700068P-1 mg), was then added and the plate was incubated at 37° C. for 4 h. Finally, the sterol isomers were extracted and injected to LC-APCI MRM MS. MRM transition used for the quantification for both zymosterol and […] (substrate and product of EBP enzymatic reaction, respectively) is 372.3-203.2, CE 30 and DP 80 in positive ion mode. Percent conversion of the zymosterol-d5 to dehydrolathosterol-d5 was used to derive IC50 curves. Tasin-1 (1′-[(4-Methoxyphenyl)sulfonyl]-4-methyl-1,4′-bipiperidine, CAS 792927-06-1) was used as the reference small molecule inhibitor.
# Percent conversion versus the compound concentration data were fit to the following 4-parameter logistic model to generate IC50 curves: […]
# T1 sequence (Q15125 whole entry): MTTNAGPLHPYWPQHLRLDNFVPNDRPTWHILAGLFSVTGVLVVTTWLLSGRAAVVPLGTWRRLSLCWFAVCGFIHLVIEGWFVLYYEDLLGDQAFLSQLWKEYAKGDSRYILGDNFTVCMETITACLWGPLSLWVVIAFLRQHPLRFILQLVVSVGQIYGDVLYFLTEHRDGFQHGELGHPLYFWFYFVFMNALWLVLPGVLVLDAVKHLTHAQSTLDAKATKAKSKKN
row,IC50,SMILES
1,250 to 4000 nM,"O=S(=O)(c1ccc(OC(F)F)cc1)N1CCOC2(CN(C3CCOCC3)C2)C1 [Example 1, 8-((4-(Difluoromethoxy)phenyl)sulfonyl)-2-(tetrahydro-2H-pyran-4-yl)-5-oxa-2,8-diazaspiro[3.5]nonane]"
2,100 to 250 nM,"O=S(=O)(c1ccc(OC(F)F)cc1)N1CCOC2(CCN(C3CCOCC3)CC2)C1 [Example 5, 4-((4-(Difluoromethoxy)phenyl)sulfonyl)-9-(tetrahydro-2H-pyran-4-yl)-1-oxa-4,9-diazaspiro[5.5]undecane]"
3,250 to 4000 nM,"O=S(=O)(c1ccc(F)cc1F)N1CCOC2(CCN(C3CCOCC3)C2)C1 (stereo not drawn) [Example 12, 9-((2,4-Difluorophenyl)sulfonyl)-2-(tetrahydro-2H-pyran-4-yl)-6-oxa-2,9-diazaspiro[4.5]decane]"
4,< 100 nM,"O=S(=O)(c1cc(F)cc(F)c1)N1CCOC2(CCN(C3CCOCC3)C2)C1 (stereo not drawn) [Example 13, 9-((3,5-Difluorophenyl)sulfonyl)-2-(tetrahydro-2H-pyran-4-yl)-6-oxa-2,9-diazaspiro[4.5]decane]"
5,250 to 4000 nM,"COc1ncc(C)cc1S(=O)(=O)N1CCOC2(CCN(C3CCOCC3)C2)C1 (stereo not drawn) [Example 16, 9-((2-Methoxy-5-methylpyridin-3-yl)sulfonyl)-2-(tetrahydro-2H-pyran-4-yl)-6-oxa-2,9-diazaspiro[4.5]decane]"
6,250 to 4000 nM,"O=S(=O)(c1ccc(OC(F)F)cc1)N1CCOC2(CCN(CC3CCOCC3)C2)C1 (stereo not drawn) [Example 18, 9-((4-(Difluoromethoxy)phenyl)sulfonyl)-2-((tetrahydro-2H-pyran-4-yl)methyl)-6-oxa-2,9-diazaspiro[4.5]decane]"
7,250 to 4000 nM,"O=S(=O)(c1ccc(OC(F)F)cc1)N1CCOC2(CCN(CC3CCOCC3)CC2)C1 [Example 19, 4-((4-(Difluoromethoxy)phenyl)sulfonyl)-9-((tetrahydro-2H-pyran-4-yl)methyl)-1-oxa-4,9-diazaspiro[5.5]undecane]"
8,250 to 4000 nM,"CC1(C)CC(N2CCC3(CC2)CN(S(=O)(=O)c2ccc(OC(F)F)cc2)CCO3)CCO1 (stereo not drawn) [Example 21, 4-((4-(Difluoromethoxy)phenyl)sulfonyl)-9-(2,2-dimethyltetrahydro-2H-pyran-4-yl)-1-oxa-4,9-diazaspiro[5.5]undecane]"
9,250 to 4000 nM,"O=S(=O)(c1cnc(C2CC2)s1)N1CCOC2(CN(C3CCOCC3)C2)C1 [Example 22, 8-((2-Cyclopropylthiazol-5-yl)sulfonyl)-2-(tetrahydro-2H-pyran-4-yl)-5-oxa-2,8-diazaspiro[3.5]nonane]"
10,100 to 250 nM,"O=S(=O)(c1cnc(C2CC2)s1)N1CCOC2(CCN(C3CCOCC3)C2)C1 (stereo not drawn) [Example 23, 9-((2-Cyclopropylthiazol-5-yl)sulfonyl)-2-(tetrahydro-2H-pyran-4-yl)-6-oxa-2,9-diazaspiro[4.5]decane]"
11,100 to 250 nM,"O=S(=O)(c1cnc(C2CC2)s1)N1CCOC2(CCN(C3CC4(COC4)C3)C2)C1 (stereo not drawn) [Example 24, 9-((2-Cyclopropylthiazol-5-yl)sulfonyl)-2-(2-oxaspiro[3.3]heptan-6-yl)-6-oxa-2,9-diazaspiro[4.5]decane]"
12,100 to 250 nM,"O=S(=O)(c1cc(F)cc(F)c1)N1CCOC2(CCN(C3CC4(COC4)C3)C2)C1 (stereo not drawn) [Example 28, 9-((3,5-Difluorophenyl)sulfonyl)-2-(2-oxaspiro[3.3]heptan-6-yl)-6-oxa-2,9-diazaspiro[4.5]decane]"
13,100 to 250 nM,"CC1(CN2CCC3(CC2)CN(S(=O)(=O)c2cc(F)cc(F)c2)CCO3)COC1 [Example 29, 4-((3,5-Difluorophenyl)sulfonyl)-9-((3-methyloxetan-3-yl)methyl)-1-oxa-4,9-diazaspiro[5.5]undecane]"
14,100 to 250 nM,"O=S(=O)(c1ccc(OC(F)F)cc1)N1CCC2(CC1)CN(C1CCOCC1)CCO2 [Example 30, 9-((4-(Difluoromethoxy)phenyl)sulfonyl)-4-(tetrahydro-2H-pyran-4-yl)-1-oxa-4,9-diazaspiro[5.5]undecane]"
15,250 to 4000 nM,"Cc1ccc(S(=O)(=O)N2CCC3(CC2)CN(C2CCOCC2)C3)c(C)c1 [Example 31, 7-((2,4-Dimethylphenyl)sulfonyl)-2-(tetrahydro-2H-pyran-4-yl)-2,7-diazaspiro[3.5]nonane]"
16,250 to 4000 nM,"O=S(=O)(c1ccc(OC(F)F)cc1)N1CCC2(CC1)CN(C1CCOCC1)C2 [Example 32, 7-((4-(Difluoromethoxy)phenyl)sulfonyl)-2-(tetrahydro-2H-pyran-4-yl)-2,7-diazaspiro[3.5]nonane]"
17,< 100 nM,"Cc1nc(C(F)(F)F)ccc1S(=O)(=O)N1CCC2(CC1)CN(C1CCOCC1)C2 [Example 33, 7-((2-Methyl-6-(trifluoromethyl)pyridin-3-yl)sulfonyl)-2-(tetrahydro-2H-pyran-4-yl)-2,7-diazaspiro[3.5]nonane]"
18,< 100 nM,"Cc1ccc(S(=O)(=O)N2CCC3(CCN(C4CCOCC4)C3)CC2)c(Cl)c1 [Example 36, 8-((2-Chloro-4-methylphenyl)sulfonyl)-2-(tetrahydro-2H-pyran-4-yl)-2,8-diazaspiro[4.5]decane]"
19,100 to 250 nM,Cc1cc(S(=O)(=O)N2CCC3(CCN(C4CCOCC4)C3)CC2)n(C)n1 [Example 37]
20,< 100 nM,Cc1cc(C(F)(F)F)ncc1S(=O)(=O)N1CCC2(CCN(C3CCOCC3)C2)CC1 [Example 38]
21,< 100 nM,O=S(=O)(c1ccc(OC(F)F)cc1)N1CCC2(CCN(C3CCOCC3)C2)CC1 [Example 39]
22,< 100 nM,Cn1nc(C(F)(F)F)cc1S(=O)(=O)N1CCC2(CCN(C3CCOCC3)C2)CC1 [Example 40]
23,< 100 nM,Cc1cc(OC(F)(F)F)ccc1S(=O)(=O)N1CCC2(CCN(C3CCOCC3)C2)CC1 [Example 41]

# The remaining lines, values behind:
row,SMILES,IC50
1,"Cc1nc(C(F)(F)F)ccc1S(=O)(=O)N1CC2(CN(C(C)C3COC3)C2)C1 (single isomer, unassigned) [Example 159]",< 100 nM
2,"Cc1nc(C(F)(F)F)ccc1S(=O)(=O)N1CC2(CN(CC3CCOC3)C2)C1 (single isomer, unassigned) [Example 160]",100 to 250 nM
3,"Cc1nc(C(F)(F)F)ccc1S(=O)(=O)N1CC2(CN(CC3CCOC3)C2)C1 (single isomer, unassigned) [Example 161]",250 to 4000 nM
4,"Cn1nc(C(F)(F)F)cc1S(=O)(=O)N1CC2(CN(CC3CCOC(C)(C)C3)C2)C1 (single isomer, unassigned) [Example 199]",100 to 250 nM
5,"Cn1nc(C(F)(F)F)cc1S(=O)(=O)N1CC2(CN(CC3CCOC(C)(C)C3)C2)C1 (single isomer, unassigned) [Example 200]",100 to 250 nM
6,"COCCN1CCC2(CC1)CN(S(=O)(=O)c1ccc(OC(F)F)cc1)CCO2 [Example 7, 4-((4-(Difluoromethoxy)phenyl)sulfonyl)-9-(2-methoxyethyl)-1-oxa-4,9-diazaspiro[5.5]undecane]",250 to 4000 nM
7,"CC(C)(O)CN1CCC2(CC1)CN(S(=O)(=O)c1ccc(OC(F)F)cc1)CCO2 [Example 10, 1-(4-((4-(Difluoromethoxy)phenyl)sulfonyl)-1-oxa-4,9-diazaspiro[5.5]undecan-9-yl)-2-methylpropan-2-ol]",250 to 4000 nM
8,"COC(C)(C)CN1CCC2(CC1)CN(S(=O)(=O)c1ccc(OC(F)F)cc1)CCO2 [Example 11, 4-((4-(Difluoromethoxy)phenyl)sulfonyl)-9-(2-methoxy-2-methylpropyl)-1-oxa-4,9-diazaspiro[5.5]undecane]",100 to 250 nM
9,"O=S(=O)(c1ccc(OC(F)F)cc1)N1CCOC2(CCN(CC3COC3)C2)C1 (stereo not drawn) [Example 17, 9-((4-(Difluoromethoxy)phenyl)sulfonyl)-2-(oxetan-3-ylmethyl)-6-oxa-2,9-diazaspiro[4.5]decane]",250 to 4000 nM
10,"CC1(CN2CCC3(CC2)CN(S(=O)(=O)c2ccc(OC(F)F)cc2)CCO3)COC1 [Example 20, 4-((4-(Difluoromethoxy)phenyl)sulfonyl)-9-((3-methyloxetan-3-yl)methyl)-1-oxa-4,9-diazaspiro[5.5]undecane]",100 to 250 nM
11,"Cc1ccc(S(=O)(=O)N2CCC3(CC2)CN(CC2(O)CCOCC2)C3)c(C)c1 [Example 34, 4-((7-((2,4-Dimethylphenyl)sulfonyl)-2,7-diazaspiro[3.5]nonan-2-yl)methyl)tetrahydro-2H-pyran-4-ol]",< 100 nM
12,"Cc1ccc(S(=O)(=O)N2CCC3(CC2)CN(CC2CCOCC2)C3)c(C)c1 [Example 35, 7-((2,4-Dimethylphenyl)sulfonyl)-2-((tetrahydro-2H-pyran-4-yl)methyl)-2,7-diazaspiro[3.5]nonane]",< 100 nM
13,Cc1nc(C(F)(F)F)ccc1S(=O)(=O)N1CCC2(CCN(C3CCOCC3)C2)CC1 [Example 42],< 100 nM
14,COc1ccc(S(=O)(=O)N2CCC3(CCN(C4CCOCC4)C3)CC2)c(C)n1 [Example 43],< 100 nM
15,"Cc1ccc(S(=O)(=O)N2CC3(CN(C4CCOCC4)C3)C2)c(C)c1 [Example 44, 2-((2,4-Dimethylphenyl)sulfonyl)-6-(tetrahydro-2H-pyran-4-yl)-2,6-diazaspiro[3.3]heptane]",< 100 nM
16,"Cc1ccc(S(=O)(=O)N2CC3(CN(CC4(O)CCOCC4)C3)C2)c(C)c1 [Example 45, 4-((6-((2,4-Dimethylphenyl)sulfonyl)-2,6-diazaspiro[3.3]heptan-2-yl)methyl)tetrahydro-2H-pyran-4-ol]",100 to 250 nM
